Results published in patent US12428378B2, “Methods and materials for increasing level of phosphorylated AMPK protein” (University of Pittsburgh—Of the Commonwealth System of …, priority 2019, dated 2025).

Each compound was assayed on pAMPK (assay: pAMPK immunostaining chemiluminescence assay in Beas2B cells). Conditions: Homo sapiens, BEAS-2B, 18 h, DMEM no glucose media, compounds 3-34, 36-44, 47-60 tested as HCl salts, read-out: efficacy (minimal compound concentration needed to increase pAMPK by 30%).
Assay type: cell-based
Method: Beas2B cells were plated in 384 white nunc plate (4000 cells per well) for overnight. Compounds were serially diluted in DMEM no glucose media using the liquid handler. Cells were washed once using Biotek EL406 before compound addition for additional 18 hours. Cells were washed and fixed with PFA before immunostained with pAMPK primary antibody and anti-Rabbit HRP secondary antibody. Finally, 25 μl of ECL reagent will be added to cells, and chemical luminescence signal will be counted using plate reader. Compounds efficacies (μM) were determined by the minimal compound concentration needed to increase pAMPK by 30%. Activity: “+” equals >10 μM; “++” equals between ≤10 μM and >1 μM; and “+++” equals ≤1 μM.
`Cc1ccccc1CN(CC(O)COc1ccc(C(F)(F)F)cc1)c1cccc2ncccc12` (centres unmarked) [compound 54] was tested, and the EC (30% increase) was 1 to 10 µM. `Cc1ccccc1CN(Cc1cccnc1)CC(C)(O)COc1ccc(C(F)(F)F)cc1` (centres unmarked) [compound 200] was tested, and the EC (30% increase) was at most 1 µM. `FC(F)(F)c1ccc(OCCCN(Cc2ccccc2)Cc2cccnc2)cc1` [compound 136] gave an EC (30% increase) of at most 1 µM. `Cc1ccccc1CN(CC(O)COc1ccc(C(F)(F)F)cc1)[C@@H](c1cccnc1)C(F)(F)F` (some centres unmarked) [compound 198] gave an EC (30% increase) of over 10 µM. In the case of `[2H]C1(c2cncs2)c2ccccc2CCN1CC(O)COc1ccc(C(F)(F)F)cc1` (centres unmarked) [compound 94], the EC (30% increase) is reported as 1 to 10 µM. Work on `Cn1cncc1CN(CCOc1ccc(C(F)(F)F)cc1)Cc1ccccc1F` [compound 160] yielded an EC (30% increase) of at most 1 µM. For `O=C(CCOc1ccc(C(F)(F)F)cc1)N1Cc2ccccc2CC1c1cccnc1` (centres unmarked) [compound 62], the EC (30% increase) was 1 to 10 µM. With `Cc1ccccc1CN(Cc1ccc(=O)[nH]c1)CC(O)COc1ccc(C(F)(F)F)cc1` (centres unmarked) [compound 59] the EC (30% increase) was 1 to 10 µM. `Cc1ccc(C(=O)N(Cc2ccccc2C)CC(O)COc2ccc(C(F)(F)F)cc2)cc1` (centres unmarked) [compound 67] showed an EC (30% increase) of at most 1 µM. In the case of `CC(C)(COc1ccc(C(F)(F)F)cc1)CN(Cc1cccnc1)Cc1ccccc1Cl` [compound 186], the EC (30% increase) is reported as at most 1 µM. Work on `Cc1ncccc1CN(Cc1ccccc1)CC(O)COc1ccc(C(F)(F)F)cc1` (centres unmarked) [compound 26] yielded an EC (30% increase) of at most 1 µM. Work on `OC(CNCC(c1ccccc1)c1ccccc1)COc1ccc(C(F)(F)F)cc1` (centres unmarked) [compound 14] yielded an EC (30% increase) of over 10 µM. `Cc1ccncc1CN(Cc1cccnc1)CC(O)COc1ccc(C(F)(F)F)cc1` (centres unmarked) [compound 29] showed an EC (30% increase) of at most 1 µM. `Cc1ccccc1CN(CCOc1ccc(C(F)(F)F)cc1)Cc1cncn1C` [compound 171] showed an EC (30% increase) of 1 to 10 µM. In the case of `Cn1ccnc1CN(CCOc1ccc(C(F)(F)F)cc1)Cc1ccccc1F` [compound 158], the EC (30% increase) is reported as at most 1 µM. In the case of `Cc1ccccc1CN(CCCOc1ccc(C(F)(F)F)cc1)Cc1cccnn1` [compound 183], the EC (30% increase) is reported as at most 1 µM. `Cc1ccccc1CN(Cc1cccnc1)C(=O)CCOc1ccc(C(F)(F)F)cc1` [compound 64] was tested, and the EC (30% increase) was 1 to 10 µM. Work on `Cn1ccnc1CN(CCOc1ccc(C(F)(F)F)cc1)Cc1ccccc1Cl` [compound 157] yielded an EC (30% increase) of at most 1 µM. `CC(=O)OC(COc1ccc(C(F)(F)F)cc1)C(=O)N(Cc1cccnc1)Cc1ccccc1Cl` (centres unmarked) [compound 127] gave an EC (30% increase) of at most 1 µM. `Cn1ccnc1C(=O)N(Cc1ccccc1Cl)CC(O)COc1ccc(C(F)(F)F)cc1` (centres unmarked) [compound 91] gave an EC (30% increase) of at most 1 µM. With `Cc1ccccc1CN(Cc1sccc1C)CC(O)COc1ccc(C(F)(F)F)cc1` (centres unmarked) [compound 71] the EC (30% increase) was 1 to 10 µM. `Cc1ccccc1CN(Cc1cccc(C(N)=O)c1)CC(O)COc1ccc(C(F)(F)F)cc1` (centres unmarked) [compound 49] was tested, and the EC (30% increase) was 1 to 10 µM. With `O[C@H](COc1ccc(C(F)(F)F)cc1)CN1Cc2ccccc2C[C@H]1c1cccnc1` [compound 133] the EC (30% increase) was at most 1 µM. `Cc1ccccc1CN(CC(=O)COc1ccc(C(F)(F)F)cc1)C(=O)c1cccnc1` [compound 123] gave an EC (30% increase) of 1 to 10 µM. `Cn1cncc1C(=O)N(Cc1ccccc1Cl)CC(O)COc1ccc(C(F)(F)F)cc1` (centres unmarked) [compound 108] gave an EC (30% increase) of at most 1 µM. Compound `Cc1ccccc1CN(Cc1cccnc1)CC(F)COc1ccc(C(F)(F)F)cc1` (centres unmarked) [compound 165] has an EC (30% increase) of at most 1 µM. `Cc1ccccc1CN(CC(O)COc1ccc(C(F)(F)F)cc1)C(=O)c1ccnn1C` (centres unmarked) [compound 152] was tested, and the EC (30% increase) was 1 to 10 µM. For `[2H]C([2H])(c1cccnc1)N(Cc1ccccc1Cl)CC(O)COc1ccc(C(F)(F)F)cc1` (centres unmarked) [compound 102], the EC (30% increase) was at most 1 µM. `O[C@H](COc1ccc(C(F)(F)F)cc1)CN1CCc2ccccc2[C@@H]1c1ccccc1` [compound 113] gave an EC (30% increase) of 1 to 10 µM. `Cc1ccccc1CN(CC(O)COc1ccc(C(F)(F)F)cc1)C(=O)c1c[nH]nc1C` (centres unmarked) [compound 89] showed an EC (30% increase) of 1 to 10 µM. Compound `OC(COc1ccc(C(F)(F)F)cc1)CN1Cc2ccccc2C1` (centres unmarked) [compound 19] has an EC (30% increase) of over 10 µM. In the case of `Cc1ccccc1CN(Cc1cnccc1C(F)(F)F)CC(O)COc1ccccc1` (centres unmarked) [compound 87], the EC (30% increase) is reported as 1 to 10 µM. With `OC(COc1ccc(C(F)(F)F)cc1)CN1Cc2ccccc2C1c1ccccc1` (centres unmarked) [compound 22] the EC (30% increase) was 1 to 10 µM. Compound `Cc1ccccc1CN(Cc1cccnc1)CC(O)COc1ccc(C(F)(F)F)cc1` (centres unmarked) [compound 8] has an EC (30% increase) of at most 1 µM. With `Cc1ccccc1CN(Cc1cccnc1)C(=O)C(O)COc1ccc(C(F)(F)F)cc1` (centres unmarked) [compound 117] the EC (30% increase) was 1 to 10 µM. Work on `Cn1cncc1C(=O)N(Cc1ccccc1Cl)CC(O)COc1cnc(C(F)(F)F)nc1` (centres unmarked) [compound 148] yielded an EC (30% increase) of over 10 µM. Work on `Cc1ccc2c(c1)CC(c1nccn1C)N(CC(O)COc1ccc(C(F)(F)F)cc1)C2` (centres unmarked) [compound 189] yielded an EC (30% increase) of over 10 µM. Work on `O[C@@H](COc1ccc(C(F)(F)F)cc1)CN(Cc1ccccc1)Cc1ccccc1` [compound 1] yielded an EC (30% increase) of 1 to 10 µM. `Cn1cncc1C(=O)N(Cc1ccccc1F)CC(O)COc1ccc(C(F)(F)F)cc1` (centres unmarked) [compound 153] gave an EC (30% increase) of 1 to 10 µM. With `Cc1ccccc1CN(Cc1cccc(C#N)c1)CC(O)COc1ccc(C(F)(F)F)cc1` (centres unmarked) [compound 50] the EC (30% increase) was over 10 µM. `Cc1ccccc1CN(Cc1cccnc1)CC(C)COc1ccc(C(F)(F)F)cc1` (centres unmarked) [compound 191] showed an EC (30% increase) of at most 1 µM. `O=C(C(O)COc1ccc(C(F)(F)F)cc1)N(Cc1cccnc1)Cc1ccccc1Cl` (centres unmarked) [compound 137] showed an EC (30% increase) of at most 1 µM. Work on `Cn1cncc1C(=O)N(CC(=O)COc1ccc(C(F)(F)F)cc1)Cc1ccccc1Cl` [compound 161] yielded an EC (30% increase) of at most 1 µM. Compound `Cc1ccccc1CN(CCCOc1ccc(C(F)(F)F)cc1)Cc1cncn1C` [compound 119] has an EC (30% increase) of at most 1 µM. In the case of `O[C@@H](COc1ccc(C(F)(F)F)cc1)CN1Cc2ccccc2C[C@H]1c1cccnc1` [compound 134], the EC (30% increase) is reported as at most 1 µM. With `OC(COc1ccc(C(F)(F)F)cc1)CN(Cc1ccccc1)Cc1cccnc1` (centres unmarked) [compound 43] the EC (30% increase) was at most 1 µM. In the case of `Cn1ccnc1CN(CCCOc1ccc(C(F)(F)F)cc1)Cc1ccccc1Cl` [compound 106], the EC (30% increase) is reported as at most 1 µM. In the case of `Cc1ccccc1CN(Cc1ccccc1C)CC(O)COc1ccc(C(F)(F)F)cc1` (centres unmarked) [compound 4], the EC (30% increase) is reported as at most 1 µM. For `OC(COc1ccc(C(F)(F)F)cc1)CN1CCc2ccccc2C1c1cccnc1` (centres unmarked) [compound 95], the EC (30% increase) was at most 1 µM. Compound `Cn1cncc1C(=O)N(CCCOc1ccc(C(F)(F)F)cc1)Cc1ccccc1Cl` [compound 125] has an EC (30% increase) of at most 1 µM. For `Fc1ccccc1CN(CCOc1ccc(C(F)(F)F)cc1)Cc1cccnc1` [compound 156], the EC (30% increase) was at most 1 µM. `Cc1ccccc1CN(CC(O)COc1ccc(C(F)(F)F)cc1)C(=O)c1ccccc1` (centres unmarked) [compound 66] showed an EC (30% increase) of at most 1 µM. `Cn1ccnc1C1Cc2ccccc2CN1CCCOc1ccc(C(F)(F)F)cc1` (centres unmarked) [compound 175] showed an EC (30% increase) of at most 1 µM. In the case of `Cc1ccccc1CN(CC(O)COc1ccc(C(F)(F)F)cc1)C(=O)c1cnn(C)c1` (centres unmarked) [compound 82], the EC (30% increase) is reported as at most 1 µM. For `Cc1ccncc1C1OC(COc2ccc(C(F)(F)F)cc2)CN1Cc1cccnc1` (centres unmarked) [compound 31], the EC (30% increase) was 1 to 10 µM. In the case of `OCC1c2ccccc2CCN1CCCOc1ccc(C(F)(F)F)cc1` (centres unmarked) [compound 188], the EC (30% increase) is reported as at most 1 µM. `Cc1cccc(C)c1OCC(O)CN(Cc1ccccc1)Cc1ccccc1` (centres unmarked) [compound 18] was tested, and the EC (30% increase) was at most 1 µM. `Cc1ccccc1CN(Cc1cnc[nH]1)CC(O)COc1ccc(C(F)(F)F)cc1` (centres unmarked) [compound 39] showed an EC (30% increase) of 1 to 10 µM. Compound `FC(F)(F)c1ccc(OCCCN2Cc3ccccc3C[C@H]2c2cccnc2)cc1` [compound 151] has an EC (30% increase) of at most 1 µM. With `[2H]C1(c2cccnc2)c2ccccc2CCN1CC(O)COc1ccc(C(F)(F)F)cc1` (centres unmarked) [compound 96] the EC (30% increase) was at most 1 µM. In the case of `CN(CC(O)COc1ccc(C(F)(F)F)cc1)CC(c1ccccc1)c1ccccc1` (centres unmarked) [compound 11], the EC (30% increase) is reported as 1 to 10 µM. `Cc1ccccc1CN(CC(O)COc1ccc(C(F)(F)F)cc1)C(=O)c1cnco1` (centres unmarked) [compound 79] gave an EC (30% increase) of 1 to 10 µM. `Cn1cncc1CN(CCCOc1ccc(C(F)(F)F)cc1)Cc1ccccc1Cl` [compound 122] was tested, and the EC (30% increase) was at most 1 µM. `O=C(c1cccnc1)N(Cc1ccccc1Cl)CC(O)COc1ccc(C(F)(F)F)cc1` (centres unmarked) [compound 141] was tested, and the EC (30% increase) was at most 1 µM. In the case of `Cc1ccccc1CN(CC(O)COc1ccccc1)C(=O)c1ccc(C(F)(F)F)nc1` (centres unmarked) [compound 88], the EC (30% increase) is reported as at most 1 µM. Compound `Cc1ccccc1CN(CC(O)COc1ccc(C(F)(F)F)cc1)C(=O)c1cc[nH]n1` (centres unmarked) [compound 75] has an EC (30% increase) of 1 to 10 µM. Work on `Cc1ccccc1CN(CC(O)COc1ccc(C(F)(F)F)cc1)C(=O)c1ncc[nH]1` (centres unmarked) [compound 77] yielded an EC (30% increase) of 1 to 10 µM. In the case of `[2H]C([2H])(c1cccnc1)N(Cc1ccccc1)CC(O)COc1ccc(C(F)(F)F)cc1` (centres unmarked) [compound 47], the EC (30% increase) is reported as at most 1 µM. In the case of `OC(COc1ccc(C(F)(F)F)cc1)CN1CCc2ccccc2[C@@H]1c1ccccc1` (some centres unmarked) [compound 111], the EC (30% increase) is reported as 1 to 10 µM. For `Cc1ccccc1CN(CCCOc1ccc(C(F)(F)F)cc1)C(=O)c1cncn1C` [compound 109], the EC (30% increase) was at most 1 µM. In the case of `Fc1ccccc1CN(Cc1cccnc1)CC1(COc2ccc(C(F)(F)F)cc2)CC1` [compound 143], the EC (30% increase) is reported as at most 1 µM. Work on `Cc1ccccc1CN(Cc1cncnc1)CC(O)COc1ccc(C(F)(F)F)cc1` (centres unmarked) [compound 23] yielded an EC (30% increase) of at most 1 µM. Compound `Cc1ccccc1CN(CC(C)COc1ccc(C(F)(F)F)cc1)C(=O)c1cncn1C` (centres unmarked) [compound 195] has an EC (30% increase) of at most 1 µM. With `Cc1ccccc1CN(Cc1cccnc1)CC(C)(C)COc1ccc(C(F)(F)F)cc1` [compound 121] the EC (30% increase) was at most 1 µM. In the case of `CC(C)(COc1ccc(C(F)(F)F)cc1)CN(Cc1cccnc1)Cc1ccccc1F` [compound 185], the EC (30% increase) is reported as at most 1 µM. `Cn1cncc1CN(CCOc1ccc(C(F)(F)F)cc1)Cc1ccccc1Cl` [compound 159] gave an EC (30% increase) of at most 1 µM. For `CC(=O)OC(COc1ccc(C(F)(F)F)cc1)C(=O)N(Cc1cncs1)Cc1ccccc1Cl` (centres unmarked) [compound 126], the EC (30% increase) was over 10 µM.
